Experimental findings from ChEMBL document CHEMBL4406843, “β-Amino acid derivatives as mitochondrial complex III inhibitors of L. donovani: A promising chemotype targeting visceral leishmaniasis” (Eur J Med Chem, 2019) are described below.

The subject of data set [1] is Leishmania donovani. Description: Induction of mitochondrial membrane depolarization in Leishmania donovani promastigotes assessed as disruption of cristae at 50 uM after 24 hrs by TEM analysis. In kind it is functional, organism-based.
For data set [2], the system named is Leishmania donovani. Description: Induction of apoptosis in Leishmania donovani promastigotes assessed as late apoptotic cells at 50 uM after 24 hrs by Annexin-V/propidium iodide staining based flow cytometric method (reference value: 0.59%). In kind it is functional. Background: In flow cytometry, cells or beads pass a laser one at a time.
Data set [3] in a line: AUC(0 to 24 hrs) in BALB/c mouse at 50 mg/kg, ip by HPLC analysis. Conditions: in vivo. The class given is ADME, organism-based. The arrangement: dose 50 mg/kg, time < 24 hr, route intraperitoneal.
In data set [4] the test system is Leishmania donovani. Description: Antileishmanial activity against Leishmania donovani MHOM/IN/80/Dd8 promastigotes harboring luciferase reporter gene assessed as inhibition of viability at 3.12 to 100 uM after 24 to 72 hrs by MTT assay relative to control. The class given is functional. A general note: Reporter assays use an easily measured gene product as a stand-in for the process of interest.

The subject of data set [5] is Leishmania donovani. In words: Induction of membrane depolarization in Leishmania donovani promastigotes assessed as increase in fluorescence at IC50 by DiBAC4 dye based flow cytometry analysis. In kind it is functional, organism-based. Particulars: TDE = time-dependent effect.
A further data set relates to Mus musculus. In words: Immunostimulatory activity in BALB/c mouse infected with Leishmania donovani promastigotes assessed as induction of TNF-alpha cytokine production at 50 mg/kg administered for 5 days starting at 15 days post infection and measured after 3 to 7 weeks by ELISA. The class given is functional, organism-based. In general terms: In an ELISA, binding on a coated surface is turned into a signal by an enzyme label.

In data set [6] the test system is Leishmania donovani. Description: Induction of apoptosis in Leishmania donovani promastigotes assessed as late apoptotic cells at 50 uM after 48 hrs by Annexin-V/propidium iodide staining based flow cytometric method (reference value: 0.59%). The class given is functional.
The subject of data set [7] is Leishmania donovani. In words: Induction of ROS generation in Leishmania donovani promastigotes at 50 uM after 24 hrs by H2DCFDA probe based flow cytometry (reference value: 1.97%). The class given is functional.
Data set [8] relates to Leishmania donovani. In words: Antileishmanial activity against Leishmania donovani promastigotes infected in BALB/c mouse assessed as reduction in parasite burden in liver at 25 mg/kg, ip administered for 7 days starting at 15 days post-infection and measured after 1 week post last dose Giemsa staining-based assay relative to control. In kind it is functional.
The nature of data set [9]: Toxicity in BALB/c mouse infected with Leishmania donovani promastigotes assessed as effect on body weight at 12.5 to 200 mg/kg, ip administered for 7 days starting at 15 days post-infection. In kind it is organism-based. Conditions: in vivo.
In data set [10] the test system is Leishmania donovani. Description: Antileishmanial activity against Leishmania donovani promastigotes infected in BALB/c mouse assessed as inhibition in parasite burden in liver at 100 mg/kg, ip administered for 7 days starting at 15 days post-infection and measured after 1 week post last dose Giemsa staining-based assay relative to control. The class given is functional.

Data set [11] deals with Leishmania donovani. In words: Antileishmanial activity against Leishmania donovani MHOM/IN/80/Dd8 amastigotes harboring luciferase reporter gene infected in mouse J774 cells after 48 hrs by Giemsa staining-based microscopic assay. The class given is functional, organism-based. Particulars: MHOM/IN/80/Dd8, J774, 48 h.
Another data set concerns J774. In words: Immunostimulatory activity in mouse J774 cells infected with Leishmania donovani promastigotes assessed as reduction in TGF-beta cytokine production at 50 uM after 48 hrs by ELISA. In kind it is functional, cell-based.
Data set [12] can be described thus: Cmax in BALB/c mouse at 50 mg/kg, ip by HPLC analysis. In kind it is ADME, organism-based. The arrangement: dose 50 mg/kg, route intraperitoneal. Conditions: in vivo.
For data set [13], the system named is Leishmania donovani. Description: Antileishmanial activity against Leishmania donovani promastigotes infected in BALB/c mouse assessed as inhibition in parasite burden in liver at 50 mg/kg, ip administered for 7 days starting at 15 days post-infection and measured after 1 week post last dose Giemsa staining-based assay relative to control. The class given is functional.

Each structure is given as a SMILES string. Active and inactive are the calls of the source. The rule behind the calls is not given here.

For the compound `CCOC(=O)C(C(=O)c1ccc(OC)cc1)C(NC(C)=O)c1cccc2ccccc12` (stereo not given), the outcome in the data set on Leishmania donovani [1] was Active. Moreover, the Activity is 0.8% in the data set on Leishmania donovani [2]; “Tde” in the data set with Leishmania donovani [5]; 2.65% in the data set on Leishmania donovani [6]; 85.54% in the data set on Leishmania donovani [7]; “Non-Toxic” in data set [9]. In data set [3], the AUC(0-t) – broadly, exposure summed from dosing to a finite time, without extrapolation to infinity – at 24 h is 1280 ng·h/mL. Also, the “inhibition (INH)” value with Leishmania donovani [4] worked out at 95.4%. Moreover, the outcome with Mus musculus and with J774 was inactive. Besides, in the data set on Leishmania donovani [8], the inhibition in vivo (commonly how much of the control response was suppressed) at 25 mg/kg worked out at 67.6%. For the same compound, the inhibition in vivo at 100 mg/kg in the data set on Leishmania donovani [10] came out at 92.1%. Further, the midpoint of inhibition in the data set with Leishmania donovani [11], the IC50, lay at 16.9 µM. In addition, the Cmax (as a rule, the maximum level reached in the sampled fluid or tissue) in data set [12] was determined as 2080 ng/mL. Moreover, the inhibition in vivo at 50 mg/kg in the data set with Leishmania donovani [13] was determined as 91.5%.
